In patent US20230104658A1, “METHODS OF INCREASING PROGENITOR CELL PRODUCTION” (Janssen Pharmaceutica NV, priority 2021, published 2023):
Square brackets hold non-standard residues; d marks the D form. 2Nal = N[C@@H](Cc1ccc2ccccc2c1)C(=O)O; Sar = CNCC(=O)O

Columns and labels:
[1] = system: myeloid progenitor cells (MPCs); test: Flow cytometry of bone marrow ten days after treatment: MPCs (Example 2); assay type: in vivo, mice; conditions: ten days after 300 μg/kg s.c.; percentage of CD45- cells
Method: (§1) In this study, male C57BL/6 mice (8-10 weeks old) from Jackson Laboratory (Bar Harbor, Me.) were subcutaneously injected with RWJ-800088 (TPOm) at 300 μg/kg or PBS (vehicle). At day 10 after RWJ-800088 injection, the mice were sacrificed to harvest bone marrow and peripheral blood. Another set of groups was intraperitoneally injected with 5 mg/kg of plerixafor (also named AMD3100) from Sigma-Aldrich 1 hour before the sacrifice. The bone marrow was further processed to isolate single cell populations. Then, the cells from bone marrow and blood were subjected to flow cytometry to identify various populations. Bone Marrow Cell Collection
(§2) Tibias were flushed and digested with 1 mg/mL collagenase IV (Gibco, 17104019) and 2 mg/mL dispase (Gibco, 17105041) in Hank's balanced salt solution (HBSS; Gibco, 24020117) for a total of 30 minutes at 37° C. with an inversion at 15 minutes. After, cell pellet was resuspended in lx ACK lysing buffer (Lonza, 10-548E) to lyse red blood cells. The suspension was filtered through 100 μm nylon mesh and collected for further analysis.
(§3) The cells isolated from the bone marrow and peripheral blood were incubated with Live/Dead Zombie dye (Biolegend) in PBS at room temperature for 15 minutes. After, primary antibodies were diluted in 2% FBS-PBS solution and incubated with cells on ice for 30 minutes. […]

[2] = system: Long-term HSCs; test: Flow cytometry of femoral bone marrow, total count/femur: long-term HSCs (Example 1); assay type: in vivo, mice; conditions: only by day 13 after treatment
Method: (§4) In this study, normal male C57BL/6 mice were subcutaneously injected with RWJ-800088 (TPOm) at 300 μg/kg (Day 0). […]
(§5) […] After, the cell pellet was resuspended in 1X ACK lysing buffer (Lonza, 10-548E) to lyse red blood cells. The suspension was filtered through 70 μm nylon mesh and collected for further analysis.
(§6) The bone marrow was further processed to isolate single cell populations. Then, the cells from the bone marrow and blood were subjected to flow cytometry to identify various population, including endothelial cells (EC), EPC, arterial EC, sinusoidal EC, lineage-, c-kit+, Sca-1+(LSK), megakaryocyte progenitors, short-term hematopoietic stem cell (ST-HSC), long-term HSC (LT-HSC), mesenchymal stern cell (MSC), LepR+c-mpl+MSC. The portion of blood sample was also subjected to clonogenic assay to validate the EPC population.
(§7) The cells isolated from the bone marrow and peripheral blood were incubated with
(§8) Live/Dead Zombie dye (Biolegend) in phosphate-buffered saline (PBS) at room temperature for 15 minutes. After, primary antibodies were diluted in 2% fetal bovine serum (FBS)-PBS solution and incubated with cells on ice for 30 minutes. Cells were washed with 2% FBS-PBS solution and incubated with secondary antibodies for 30 minutes. Cells were washed again and acquired on Cytek Aurora spectral cytometer. Analysis was done through FlowJo (Tree Star) software.

[3] = system: Myeloid progenitor cells (MPC); test: Flow cytometry of femoral bone marrow, total count/femur: myeloid progenitor cells (Example 1); assay type: in vivo, mice
Method: as §4, §5, §6, §7, §8

[4] = system: Short-term HSCs; test: Flow cytometry of femoral bone marrow, total count/femur: short-term HSCs (Example 1); assay type: in vivo, mice; conditions: after treatment for 13 days
Method: as §4, §5, §6, §7, §8

[5] = system: hemopoietic stem cells (HSCs); test: Flow cytometry of bone marrow ten days after treatment: HSCs (Example 2); assay type: in vivo, mice; conditions: ten days after 300 μg/kg s.c.; percentage of CD45- cells
Method: as §1, §2, §3

[6] = system: Endothelial progenitor cells (EPC); test: Flow cytometry of femoral bone marrow, total count/femur: endothelial progenitor cells (Example 1); assay type: in vivo, mice; conditions: days 3 to 13 after 300 μg/kg s.c.
Method: as §4
as §2, with “(HB SS) (Gibco,” for “(HBSS; Gibco,”, “After, the” for “After,”, “1X” for “lx”, “70” for “100”
as §6, §7
(§9) Live/Dead Zombie dye (Biolegend) in phosphate-buffered saline (PBS) at room temperature for 15 minutes. After, primary antibodies were diluted in 2% fetal bovine serum (FBS)-PBS solution and incubated with cells on ice for 30 minutes. […]

[7] = system: Endothelial cells (EC); test: Flow cytometry of femoral bone marrow, total count/femur: CD31+ endothelial cells (Example 1); assay type: in vivo, mice; conditions: days 3 to 13 after 300 μg/kg s.c.
Method: In this study, normal male C57BL/6 mice were subcutaneously injected with RWJ-800088 (TPOm) at 300 μg/kg (Day 0). At days 3, 7, 10 and 14, the mice were sacrificed to collect the bone marrow and blood samples.
as §5, §6, §7
Live/Dead Zombie dye (Biolegend) in phosphate-buffered saline (PBS) at room temperature for 15 minutes. After, primary antibodies were diluted in 2% fetal bovine serum (FBS)-PBS solution and incubated with cells on ice for 30 minutes. Cells were washed with 2% FBS-PBS solution and incubated with secondary antibodies for 30 minutes. […]

[8] = system: LSK; test: Flow cytometry of femoral bone marrow, total count/femur: LSK cells (Example 1); assay type: in vivo, mice; conditions: after treatment for 13 days
Method: as §4
as §2, with “(HB SS) (Gibco,” for “(HBSS; Gibco,”, “After, the” for “After,”, “1X” for “lx”, “70” for “100”
as §6, §7, §9

[9] = system: Endothelial progenitor cells (EPCs); test: Flow cytometry of bone marrow ten days after treatment: EPCs (Example 2); assay type: in vivo, mice; conditions: 10 days after 300 μg/kg s.c.; percentage of CD45- cells
Method: as §1, §2, §3

[10] = system: Megakaryocytes; test: Histology (H&E) megakaryocyte count in sternal bone marrow of healthy mice after single s.c. dose; assay type: in vivo
Method: as §4
Further, hematopoietic stem and progenitor cell (HSPC) populations in the femoral marrow were examined by flow cytometry (FIG. 2).

“methoxypolyethyleneglyco120000-propionyl-L-Isoleucyl-L-Glutamyl-Glycyl-L-Prolyl-L-Threonyl-L-Leucyl-L-Arginyl-L-Glutaminyl-L-2-Naphthylalanyl-L-Leucyl-L-Alanyl-L-Alanyl-L-Arginyl-Sarcosyl-Ne-(methoxypolyethyleneglyco120000-propionyl-L-Isoleucyl-L-Glutamyl-Glycyl-L-Prolyl-L-Threonyl-L-Leucyl-L-Arginyl-L-Glutaminyl-L-2-Naphthylalanyl-L-Leucyl-L-Alanyl-L-Alanyl-L-Arginyl-Sarcosyl-)-Lysinamide ({methoxypolyethyleneglycol 20000‑propionyl}-IEGPTLRQ[2Nal]LAAR[Sar]K-NH2; also: dimer: second identical mPEG20000-propionyl-peptide-Sar arm on C-terminal Lys Ne) [RWJ-800088]” was tested, and the “MPC population in the bone marrow compartment” value [1] was “increases”, the “LSK, CD34-, CD48-, CD150+ long-term (LT-) HSCs in femoral marrow” value [2] was “significantly increased” and the “Myeloid progenitor cells (lineage-, c-kit+) in femoral marrow relative to naive” value ([3]; day 3 after treatment) was “significant increases”. For the same substance, the “Myeloid progenitor cells (lineage-, c-kit+) in femoral marrow” value ([3]; day 6 after treatment) was “significant decrease”, the “Myeloid progenitor cells (lineage-, c-kit+) in femoral marrow” value ([3]; day 13 after treatment) was “return to baseline” and the “LSK, CD34+ short-term (ST-) HSC population in femoral marrow” value [4] was “significantly increased”. The “HSC population in the bone marrow compartment” value [5] was “increases”, the “EPC population in femoral marrow, time course” value [6] was “began increasing on day 3 with a peak on day 6” and the “EC (CD31+) population in femoral marrow, time course” value [7] was “increased beginning on day 3 and was sustained through day 13”. For the same substance, the “LSK (lineage-, c-kit+, Sca-1+) population in femoral marrow” value [8] was “significantly increased”, the “EPC populations in the bone marrow” value [9] was “significant increase” and the “Number of megakaryocytes in sternal marrow” value ([10]; 13 days after treatment, 300 μg/kg s.c.) was “dropped down to baseline”. The “Megakaryocytes in sternal marrow relative to naive animals” value ([10]; days 3 and 6 after 300 μg/kg s.c.) was “significant increases”.
